Test results as given in ChEMBL document CHEMBL6083262, “Stereorandomized Oncocins with Preserved Ribosome Binding and Antibacterial Activity” (J Med Chem, 2024).
Active and inactive are the calls of the source. The calls are words filed in the database; no cut-off is given here. Non-standard residues stand in square brackets, D forms with d. Residues, ends and D or L forms follow the SMILES beside them. ξ: configuration not given here. ξY = NC(Cc1ccc(O)cc1)C(=O)O; ξR = N=C(N)NCCCC(N)C(=O)O; ξN = NC(=O)CC(N)C(=O)O; Nleu = CC(C)CNCC(=O)O; ξI = CCC(C)C(N)C(=O)O; Nlys = NCCCCNCC(=O)O; ξP = O=C(O)C1CCCN1

Key:
[1] = system: Staphylococcus aureus; test: Antimicrobial activity against methicillin-resistant Staphylococcus aureus COL incubated for 16 to 20 hrs in full muller hinton medium by broth microdilution method; type: functional; settings: time 16-20 hrs
[2] = system: Pseudomonas aeruginosa; test: Antimicrobial activity against Pseudomonas aeruginosa PAO1 incubated for 16 to 20 hrs in full muller hinton medium by broth microdilution method; type: functional; settings: time 16-20 hrs
[3] = Hemolytic activity in human RBC incubated for 4 hrs; type: toxicity, cell-based; settings: erythrocyte
[4] = system: rRNA; test: Binding affinity to [gamma32 P-ATP] labeled Escherichia coli MG1655 23S ribosomal RNA (5-CCCTTGGGACCTACTTC-3') at U2506 position assessed as increase in band intensity at 1 uM incubated for 2.5 hrs in full muller hinton medium by CMCT based gel electrophoresis; type: nucleic-acid assay
[5] = system: Staphylococcus aureus; test: Antimicrobial activity against methicillin-resistant Staphylococcus aureus COL incubated for 16 to 20 hrs in 12.5 % muller hinton medium by broth microdilution method; type: functional; settings: time 16-20 hrs
[6] = system: Acinetobacter baumannii; test: Antimicrobial activity against Acinetobacter baumannii ATCC 19606 incubated for 16 to 20 hrs in full muller hinton medium by broth microdilution method; type: functional; settings: time 16-20 hrs
[7] = system: Pseudomonas aeruginosa; test: Antimicrobial activity against Pseudomonas aeruginosa PAO1 incubated for 16 to 20 hrs in 12.5 % muller hinton medium by broth microdilution method; type: functional; settings: time 16-20 hrs
[8] = system: Klebsiella pneumoniae; test: Antimicrobial activity against Klebsiella pneumoniae NCTC 418 incubated for 16 to 20 hrs in full muller hinton medium by broth microdilution method; type: functional; settings: time 16-20 hrs

Row | SMILES | MIC [1] [µg/mL] | MIC [2] [µg/mL] | MHC [3] [µg/mL] | Activity [4] | MIC [5] [µg/mL] | MIC [6] [µg/mL] | MIC [7] [µg/mL] | MIC [8] [µg/mL]
1 | CCC(C)C(NC(=O)C(CCCNC(=N)N)NC(=O)C(CCCNC(=N)N)NC(=O)C1CCCN1C(=O)C1CCCN1C(=O)C(CCCNC(=N)N)NC(=O)C1CCCN1C(=O)C(CCCNC(=N)N)NC(=O)[C@@H]1CCCN1C(=O)[C@H](CC(C)C)NC(=O)[C@H](Cc1ccc(O)cc1)NC(=O)[C@@H]1CCCN1C(=O)[C@@H]1CCCN1C(=O)[C@H](CCCCN)NC(=O)[C@H](CC(=O)O)NC(=O)[C@@H](N)C(C)C)C(=O)NC(Cc1ccc(O)cc1)C(=O)NC(CC(N)=O)C(=O)NC(CCCNC(=N)N)C(N)=O (stereo partly specified) (H-VDKPPYLP[ξR][ξP][ξR][ξP][ξP][ξR][ξR][ξI][ξY][ξN][ξR]-NH2) | > 64 | > 64 | > 1000 |  |  |  |  | 
2 | CC(C)C[C@H](NC(=O)CN(CC(C)C)C(=O)[C@H](CC(C)C)NC(=O)CN(CCCCN)C(=O)[C@H](CC(C)C)NC(=O)CN(CC(C)C)C(=O)[C@H](CCCCN)NC(=O)CN(CC(C)C)C(=O)[C@H](CC(C)C)NC(=O)CN(CCCCN)C(=O)[C@@H](N)CCCCN)C(N)=O (H-K[Nlys]L[Nleu]K[Nleu]L[Nlys]L[Nleu]L-NH2) |  |  | > 2000 |  |  |  |  | 
3 | CCC(C)C(NC(=O)C(CCCNC(=N)N)NC(=O)C(CCCNC(=N)N)NC(=O)C1CCCN1C(=O)C1CCCN1C(=O)C(CCCNC(=N)N)NC(=O)C1CCCN1C(=O)C(CCCNC(=N)N)NC(=O)C1CCCN1C(=O)[C@H](CC(C)C)NC(=O)[C@H](Cc1ccc(O)cc1)NC(=O)[C@@H]1CCCN1C(=O)[C@@H]1CCCN1C(=O)[C@H](CCCCN)NC(=O)[C@H](CC(=O)O)NC(=O)[C@@H](N)C(C)C)C(=O)NC(Cc1ccc(O)cc1)C(=O)NC(CC(N)=O)C(=O)NC(CCCNC(=N)N)C(N)=O (stereo partly specified) (H-VDKPPYL[ξP][ξR][ξP][ξR][ξP][ξP][ξR][ξR][ξI][ξY][ξN][ξR]-NH2) | > 64 | > 64 | > 1000 |  |  |  |  | 
4 | CC[C@@H](C)[C@@H](NC(=O)[C@@H](CCCNC(=N)N)NC(=O)[C@@H](CCCNC(=N)N)NC(=O)[C@H]1CCCN1C(=O)[C@H]1CCCN1C(=O)[C@H](CCCNC(=N)N)NC(=O)[C@@H]1CCCN1C(=O)[C@H](CCCNC(=N)N)NC(=O)[C@@H]1CCCN1C(=O)[C@H](CC(C)C)NC(=O)[C@H](Cc1ccc(O)cc1)NC(=O)[C@@H]1CCCN1C(=O)[C@@H]1CCCN1C(=O)[C@H](CCCCN)NC(=O)[C@H](CC(=O)O)NC(=O)[C@@H](N)C(C)C)C(=O)N[C@H](Cc1ccc(O)cc1)C(=O)N[C@H](CC(N)=O)C(=O)N[C@H](CCCNC(=N)N)C(N)=O (H-VDKPPYLPRPR[dP][dP][dR][dR][dI][dY][dN][dR]-NH2) | > 64 | > 64 | > 1000 | Active |  |  |  | 
5 | CC[C@H](C)[C@H](NC(=O)[C@H](CCCNC(=N)N)NC(=O)[C@H](CCCNC(=N)N)NC(=O)[C@@H]1CCCN1C(=O)[C@@H]1CCCN1C(=O)[C@H](CCCNC(=N)N)NC(=O)[C@H]1CCCN1C(=O)[C@H](CCCNC(=N)N)NC(=O)[C@@H]1CCCN1C(=O)[C@H](CC(C)C)NC(=O)[C@H](Cc1ccc(O)cc1)NC(=O)[C@@H]1CCCN1C(=O)[C@@H]1CCCN1C(=O)[C@H](CCCCN)NC(=O)[C@H](CC(=O)O)NC(=O)[C@@H](N)C(C)C)C(=O)N[C@@H](Cc1ccc(O)cc1)C(=O)N[C@@H](CC(N)=O)C(=O)N[C@@H](CCCNC(=N)N)C(N)=O (H-VDKPPYLPR[dP]RPPRRIYNR-NH2) | > 64 | > 64 | > 1000 |  | > 64 |  |  | 
6 | CC[C@@H](C)[C@@H](NC(=O)[C@@H](CCCNC(=N)N)NC(=O)[C@@H](CCCNC(=N)N)NC(=O)[C@H]1CCCN1C(=O)[C@H]1CCCN1C(=O)[C@@H](CCCNC(=N)N)NC(=O)[C@@H]1CCCN1C(=O)[C@H](CCCNC(=N)N)NC(=O)[C@@H]1CCCN1C(=O)[C@H](CC(C)C)NC(=O)[C@H](Cc1ccc(O)cc1)NC(=O)[C@@H]1CCCN1C(=O)[C@@H]1CCCN1C(=O)[C@H](CCCCN)NC(=O)[C@H](CC(=O)O)NC(=O)[C@@H](N)C(C)C)C(=O)N[C@H](Cc1ccc(O)cc1)C(=O)N[C@H](CC(N)=O)C(=O)N[C@H](CCCNC(=N)N)C(N)=O (H-VDKPPYLPRP[dR][dP][dP][dR][dR][dI][dY][dN][dR]-NH2) | > 64 |  | > 1000 | Active | > 64 |  |  | 
7 | CC[C@H](C)[C@H](NC(=O)[C@H](CCCNC(=N)N)NC(=O)[C@H](CCCNC(=N)N)NC(=O)[C@@H]1CCCN1C(=O)[C@@H]1CCCN1C(=O)[C@H](CCCNC(=N)N)NC(=O)[C@@H]1CCCN1C(=O)[C@@H](CCCNC(=N)N)NC(=O)[C@@H]1CCCN1C(=O)[C@H](CC(C)C)NC(=O)[C@H](Cc1ccc(O)cc1)NC(=O)[C@@H]1CCCN1C(=O)[C@@H]1CCCN1C(=O)[C@H](CCCCN)NC(=O)[C@H](CC(=O)O)NC(=O)[C@@H](N)C(C)C)C(=O)N[C@@H](Cc1ccc(O)cc1)C(=O)N[C@@H](CC(N)=O)C(=O)N[C@@H](CCCNC(=N)N)C(N)=O (H-VDKPPYLP[dR]PRPPRRIYNR-NH2) | > 64 | > 64 | > 1000 |  | > 64 | > 64 |  | 
8 | CC[C@H](C)[C@H](NC(=O)[C@H](CCCNC(=N)N)NC(=O)[C@H](CCCNC(=N)N)NC(=O)[C@@H]1CCCN1C(=O)[C@@H]1CCCN1C(=O)[C@H](CCCNC(=N)N)NC(=O)[C@@H]1CCCN1C(=O)[C@H](CCCNC(=N)N)NC(=O)[C@@H]1CCCN1C(=O)[C@H](CC(C)C)NC(=O)[C@H](Cc1ccc(O)cc1)NC(=O)[C@@H]1CCCN1C(=O)[C@H]1CCCN1C(=O)[C@H](CCCCN)NC(=O)[C@H](CC(=O)O)NC(=O)[C@@H](N)C(C)C)C(=O)N[C@@H](Cc1ccc(O)cc1)C(=O)N[C@@H](CC(N)=O)C(=O)N[C@@H](CCCNC(=N)N)C(N)=O (H-VDK[dP]PYLPRPRPPRRIYNR-NH2) | > 64 | > 64 | > 1000 |  |  |  | > 16 | 
9 | CC[C@H](C)[C@H](NC(=O)[C@H](CCCNC(=N)N)NC(=O)[C@H](CCCNC(=N)N)NC(=O)[C@@H]1CCCN1C(=O)[C@@H]1CCCN1C(=O)[C@@H](CCCNC(=N)N)NC(=O)[C@@H]1CCCN1C(=O)[C@H](CCCNC(=N)N)NC(=O)[C@@H]1CCCN1C(=O)[C@H](CC(C)C)NC(=O)[C@H](Cc1ccc(O)cc1)NC(=O)[C@@H]1CCCN1C(=O)[C@@H]1CCCN1C(=O)[C@H](CCCCN)NC(=O)[C@H](CC(=O)O)NC(=O)[C@@H](N)C(C)C)C(=O)N[C@@H](Cc1ccc(O)cc1)C(=O)N[C@@H](CC(N)=O)C(=O)N[C@@H](CCCNC(=N)N)C(N)=O (H-VDKPPYLPRP[dR]PPRRIYNR-NH2) | > 64 | > 64 | > 1000 |  | > 64 |  |  | 
10 | CC[C@H](C)[C@H](NC(=O)[C@H](CCCNC(=N)N)NC(=O)[C@H](CCCNC(=N)N)NC(=O)[C@@H]1CCCN1C(=O)[C@@H]1CCCN1C(=O)[C@H](CCCNC(=N)N)NC(=O)[C@@H]1CCCN1C(=O)[C@H](CCCNC(=N)N)NC(=O)[C@@H]1CCCN1C(=O)[C@H](CC(C)C)NC(=O)[C@@H](Cc1ccc(O)cc1)NC(=O)[C@@H]1CCCN1C(=O)[C@@H]1CCCN1C(=O)[C@H](CCCCN)NC(=O)[C@H](CC(=O)O)NC(=O)[C@@H](N)C(C)C)C(=O)N[C@@H](Cc1ccc(O)cc1)C(=O)N[C@@H](CC(N)=O)C(=O)N[C@@H](CCCNC(=N)N)C(N)=O (H-VDKPP[dY]LPRPRPPRRIYNR-NH2) | > 64 | > 64 | > 1000 |  |  | > 64 |  | 
11 | CC[C@H](C)[C@H](NC(=O)[C@H](CCCNC(=N)N)NC(=O)[C@H](CCCNC(=N)N)NC(=O)[C@@H]1CCCN1C(=O)[C@@H]1CCCN1C(=O)[C@H](CCCNC(=N)N)NC(=O)[C@@H]1CCCN1C(=O)[C@H](CCCNC(=N)N)NC(=O)[C@H]1CCCN1C(=O)[C@H](CC(C)C)NC(=O)[C@H](Cc1ccc(O)cc1)NC(=O)[C@@H]1CCCN1C(=O)[C@@H]1CCCN1C(=O)[C@H](CCCCN)NC(=O)[C@H](CC(=O)O)NC(=O)[C@@H](N)C(C)C)C(=O)N[C@@H](Cc1ccc(O)cc1)C(=O)N[C@@H](CC(N)=O)C(=O)N[C@@H](CCCNC(=N)N)C(N)=O (H-VDKPPYL[dP]RPRPPRRIYNR-NH2) | > 64 | > 64 | > 1000 |  |  | > 64 |  | > 64
12 | CCC(C)C(NC(=O)C(CCCNC(=N)N)NC(=O)C(CCCNC(=N)N)NC(=O)C1CCCN1C(=O)C1CCCN1C(=O)C(CCCNC(=N)N)NC(=O)C1CCCN1C(=O)[C@H](CCCNC(=N)N)NC(=O)[C@@H]1CCCN1C(=O)[C@H](CC(C)C)NC(=O)[C@H](Cc1ccc(O)cc1)NC(=O)[C@@H]1CCCN1C(=O)[C@@H]1CCCN1C(=O)[C@H](CCCCN)NC(=O)[C@H](CC(=O)O)NC(=O)[C@@H](N)C(C)C)C(=O)NC(Cc1ccc(O)cc1)C(=O)NC(CC(N)=O)C(=O)NC(CCCNC(=N)N)C(N)=O (stereo partly specified) (H-VDKPPYLPR[ξP][ξR][ξP][ξP][ξR][ξR][ξI][ξY][ξN][ξR]-NH2) | > 64 |  | > 1000 |  |  |  |  | 
13 | CC[C@H](C)[C@H](NC(=O)[C@H](CCCNC(=N)N)NC(=O)[C@H](CCCNC(=N)N)NC(=O)[C@@H]1CCCN1C(=O)[C@H]1CCCN1C(=O)[C@H](CCCNC(=N)N)NC(=O)[C@@H]1CCCN1C(=O)[C@H](CCCNC(=N)N)NC(=O)[C@@H]1CCCN1C(=O)[C@H](CC(C)C)NC(=O)[C@H](Cc1ccc(O)cc1)NC(=O)[C@@H]1CCCN1C(=O)[C@@H]1CCCN1C(=O)[C@H](CCCCN)NC(=O)[C@H](CC(=O)O)NC(=O)[C@@H](N)C(C)C)C(=O)N[C@@H](Cc1ccc(O)cc1)C(=O)N[C@@H](CC(N)=O)C(=O)N[C@@H](CCCNC(=N)N)C(N)=O (H-VDKPPYLPRPR[dP]PRRIYNR-NH2) | > 64 | > 64 | > 1000 |  |  |  |  | 
